From US12358886B2, “Heterocyclic compounds for use in the treatment of cancer” (Artios Pharma Limited, priority 2019, dated 2025) come the findings set out here.

Sequence of Polθ protein (amino acids 2-2590) (O75417 2-2590): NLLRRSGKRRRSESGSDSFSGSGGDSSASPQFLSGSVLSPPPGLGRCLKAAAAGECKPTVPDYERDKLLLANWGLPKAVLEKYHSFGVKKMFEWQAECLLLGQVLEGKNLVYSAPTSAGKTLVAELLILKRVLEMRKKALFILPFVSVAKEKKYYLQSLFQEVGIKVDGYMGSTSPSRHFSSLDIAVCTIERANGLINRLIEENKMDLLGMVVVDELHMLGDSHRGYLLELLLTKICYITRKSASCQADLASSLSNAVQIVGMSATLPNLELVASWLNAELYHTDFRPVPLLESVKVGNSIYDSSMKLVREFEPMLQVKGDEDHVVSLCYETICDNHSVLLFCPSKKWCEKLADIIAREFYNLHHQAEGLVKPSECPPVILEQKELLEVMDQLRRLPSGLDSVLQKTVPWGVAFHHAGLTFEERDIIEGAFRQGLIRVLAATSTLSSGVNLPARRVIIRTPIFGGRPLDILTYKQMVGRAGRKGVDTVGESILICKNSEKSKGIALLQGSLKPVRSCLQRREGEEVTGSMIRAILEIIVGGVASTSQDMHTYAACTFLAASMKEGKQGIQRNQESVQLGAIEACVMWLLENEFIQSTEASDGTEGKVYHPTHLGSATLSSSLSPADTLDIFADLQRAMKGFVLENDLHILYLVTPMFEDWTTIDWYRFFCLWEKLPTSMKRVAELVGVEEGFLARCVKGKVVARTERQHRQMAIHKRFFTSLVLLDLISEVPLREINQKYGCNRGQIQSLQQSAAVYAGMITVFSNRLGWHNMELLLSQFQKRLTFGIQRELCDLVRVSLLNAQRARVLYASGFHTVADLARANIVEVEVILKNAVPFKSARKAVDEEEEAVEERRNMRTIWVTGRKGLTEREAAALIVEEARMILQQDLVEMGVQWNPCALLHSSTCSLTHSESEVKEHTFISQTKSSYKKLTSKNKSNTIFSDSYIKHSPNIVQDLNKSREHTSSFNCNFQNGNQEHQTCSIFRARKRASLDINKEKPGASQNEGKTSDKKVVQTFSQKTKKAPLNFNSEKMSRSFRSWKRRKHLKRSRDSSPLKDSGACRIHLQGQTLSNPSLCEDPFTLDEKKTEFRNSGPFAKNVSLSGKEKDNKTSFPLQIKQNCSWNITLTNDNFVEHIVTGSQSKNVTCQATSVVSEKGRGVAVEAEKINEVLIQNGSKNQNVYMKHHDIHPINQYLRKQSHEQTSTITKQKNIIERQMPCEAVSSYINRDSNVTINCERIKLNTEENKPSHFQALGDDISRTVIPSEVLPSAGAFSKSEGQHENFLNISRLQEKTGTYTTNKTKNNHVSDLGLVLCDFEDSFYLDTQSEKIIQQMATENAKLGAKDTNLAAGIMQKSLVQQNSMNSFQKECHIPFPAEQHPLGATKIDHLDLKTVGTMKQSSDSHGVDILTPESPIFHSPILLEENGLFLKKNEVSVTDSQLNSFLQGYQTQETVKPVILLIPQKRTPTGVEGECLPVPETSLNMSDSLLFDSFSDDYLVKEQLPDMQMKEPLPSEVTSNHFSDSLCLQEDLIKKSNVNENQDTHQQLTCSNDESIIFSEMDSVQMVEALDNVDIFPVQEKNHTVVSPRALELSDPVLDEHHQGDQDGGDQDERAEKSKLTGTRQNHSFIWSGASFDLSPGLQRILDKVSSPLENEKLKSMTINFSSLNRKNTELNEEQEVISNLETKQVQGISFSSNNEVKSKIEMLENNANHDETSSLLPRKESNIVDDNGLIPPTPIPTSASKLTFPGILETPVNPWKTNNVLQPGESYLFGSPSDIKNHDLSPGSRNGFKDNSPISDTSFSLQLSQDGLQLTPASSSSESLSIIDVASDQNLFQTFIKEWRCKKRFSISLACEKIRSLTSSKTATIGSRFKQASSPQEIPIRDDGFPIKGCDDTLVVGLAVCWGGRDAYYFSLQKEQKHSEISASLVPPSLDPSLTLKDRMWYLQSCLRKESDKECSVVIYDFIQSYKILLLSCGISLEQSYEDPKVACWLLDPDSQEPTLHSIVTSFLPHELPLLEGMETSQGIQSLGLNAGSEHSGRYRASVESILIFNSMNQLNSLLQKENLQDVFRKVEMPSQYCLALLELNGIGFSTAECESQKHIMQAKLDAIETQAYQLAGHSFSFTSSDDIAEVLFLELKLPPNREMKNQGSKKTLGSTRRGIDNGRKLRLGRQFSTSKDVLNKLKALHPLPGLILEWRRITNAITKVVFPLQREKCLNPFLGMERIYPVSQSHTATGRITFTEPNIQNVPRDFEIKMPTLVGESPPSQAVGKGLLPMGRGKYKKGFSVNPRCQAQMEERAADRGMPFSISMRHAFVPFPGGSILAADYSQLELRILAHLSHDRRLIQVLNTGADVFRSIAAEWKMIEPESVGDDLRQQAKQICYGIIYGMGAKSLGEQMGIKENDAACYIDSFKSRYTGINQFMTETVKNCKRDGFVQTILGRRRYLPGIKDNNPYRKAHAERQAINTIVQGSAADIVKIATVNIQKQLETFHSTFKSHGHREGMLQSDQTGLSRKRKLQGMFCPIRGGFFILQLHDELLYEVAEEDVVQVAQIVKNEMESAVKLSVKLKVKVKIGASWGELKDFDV

This experiment has as its target Polθ protein (amino acids 2-2590) (Homo sapiens, UniProt O75417). Kind of experiment: Polθ full length enzyme potency assay (PicoGreen). The following applies: Polθ IC50 (nM), full length N-His, C-term FLAG tagged Polθ, PicoGreen fluorescence, 12 point concentration response.
Method: Polθ Full Length Enzyme Potency Assay
PicoGreen assay was used to measure the ability of compounds to inhibit the activity of Polθ in vitro. […] DMSO concentration was maintained at 1% by back filling with DMSO solution. […] This was dispensed into each well of the compound plate using a VIAFLO 16 channel manual pipette (Integra) and pre-incubated at rt for 30 min. 3 μL of 2× working solution of dNTPs (40 μM) (dATP, dCTP, dGTP, dTTP; Sigma D6500, D4635, D4010, T0251) diluted in assay buffer was then added and the reaction incubated for 60 min at rt. The reaction was stopped by addition of 10 mM EDTA, 25 mM Tris pH 7.5 and 1:200 dilution of PicoGreen dye (Invitrogen P7581).
As usually defined, the IC50 is the concentration at which inhibition is half-maximal. A high value points to weaker potency in that assay. Molecule `CCN(C(=O)[C@@H]1[C@H](O)CCN1c1nc(C)cc(C(F)(F)F)c1C#N)c1ccc(F)c(Cl)c1` [Example 82, (2S,3R)—N-(3-Chloro-4-fluorophenyl)-1-(3-cyano-6-methyl-4-(trifluoromethyl)pyridin-2-yl)-N-ethyl-3-hydroxypyrrolidine-2-carboxamide] returned a half-maximal inhibitory concentration (IC50) of 8 nM.
`[2H]C([2H])([2H])N(C(=O)[C@@H]1[C@H](O)[C@H](O)C(=O)N1c1cc(C(F)(F)F)cc(C)n1)c1ccc(F)c(Cl)c1F` [Example 162, (2S,3S,4S)—N-(3-Chloro-2,4-difluorophenyl)-3,4-dihydroxy-N-(methyl-d3)-1-(6-methyl-4-(trifluoromethyl)pyridin-2-yl)-5-oxopyrrolidine-2-carboxamide] returned a 50% inhibitory concentration (IC50) of 3 nM.
With `CCN(C(=O)[C@@H]1C[C@H](N2CCO[C@@H](CO)C2)CN1c1nc(C)cc(C(F)(F)F)c1C#N)c1ccc(F)c(Cl)c1` [Example 155, (2S,4S)-N-(3-Chloro-4-fluorophenyl)-1-(3-cyano-6-methyl-4-(trifluoromethyl)pyridin-2-yl)-N-ethyl-4-((R)-2-(hydroxymethyl)morpholino)pyrrolidine-2-carboxamide] the figure was 15 nM; with `CCN(C(=O)[C@@H]1C[C@H](N[C@H]2CN(C(=O)OC(C)(C)C)C[C@H]2O)CN1c1cc(C(F)(F)F)cc(C)n1)c1ccc(F)c(F)c1` [Example 136, tert-Butyl (3S,4R)-3-(((3S,5S)-5-((3,4-difluorophenyl)(ethyl)carbamoyl)-1-(6-methyl-4-(trifluoromethyl)pyridin-2-yl)pyrrolidin-3-yl)amino)-4-hydroxypyrrolidine-1-carboxylate], 45 nM.
With `Cc1cc(C(F)(F)F)cc(N2C(=O)OC[C@H]2C(=O)N(C)c2ccc(Br)cc2F)n1` [Example 94, (S)-N-(4-Bromo-2-fluorophenyl)-N-methyl-3-(6-methyl-4-(trifluoromethyl)pyridin-2-yl)-2-oxooxazolidine-4-carboxamide] the figure was 12 nM; with `Cc1cc(C(F)(F)F)cc(N2C(=O)N(CC3(O)CNC3)C[C@H]2C(=O)N(C)c2ccc(F)c(Cl)c2)n1` [Example 225, (S)—N-(3-Chloro-4-fluorophenyl)-1-((3-hydroxyazetidin-3-yl)methyl)-N-methyl-3-(6-methyl-4-(trifluoromethyl)pyridin-2-yl)-2-oxoimidazolidine-4-carboxamide], 17 nM; with `Cc1cc(C(F)(F)F)cc(N2C(=O)[C@@H](CN(C)C)C[C@@H]2C(=O)N(C)c2ccc(F)c(Cl)c2)n1` (stereo in doubt) [Example 79, (2R,4R)—N-(3-Chloro-4-fluorophenyl)-4-((dimethylamino)methyl)-N-methyl-1-(6-methyl-4-(trifluoromethyl)pyridin-2-yl)-5-oxopyrrolidine-2-carboxamide], 90 nM.
As to `C=Cc1cc(N(C)C(=O)[C@@H]2COC(=O)N2c2cc(C(F)(F)F)cc(C)n2)ccc1F` [Example 109, (S)—N-(4-Fluoro-3-vinylphenyl)-N-methyl-3-(6-methyl-4-(trifluoromethyl)pyridin-2-yl)-2-oxooxazolidine-4-carboxamide], the IC50 came to 49 nM. Against the preceding molecule, the IC50 is about 1.8-fold lower.
With `Cc1cccc(N(C)C(=O)[C@@H]2C[C@H](O)CN2c2cc(C(F)(F)F)cc(C)n2)c1` [Example 27, (2S,4S)-4-Hydroxy-N-methyl-1-(6-methyl-4-(trifluoromethyl)pyridin-2-yl)-N-(m-tolyl)pyrrolidine-2-carboxamide] the figure was 12 nM; with `CCN(C(=O)[C@@H]1C[C@H](O)CN1c1nc(C)cc(C)c1C#N)c1cccc(C)c1` [Example 21, (2S,4S)-1-(3-Cyano-4,6-dimethylpyridin-2-yl)-N-ethyl-4-hydroxy-N-(m-tolyl)pyrrolidine-2-carboxamide], 77 nM.
Take `CN(C(=O)[C@@H]1COC(=O)N1c1cc(C(F)(F)F)cc(Cl)n1)c1ccc(F)c(Cl)c1` [Example 113, (S)-3-(6-Chloro-4-(trifluoromethyl)pyridin-2-yl)-N-(3-chloro-4-fluorophenyl)-N-methyl-2-oxooxazolidine-4-carboxamide]: 21 nM corresponded to half-maximal inhibition (IC50).
In the case of `COc1cc(N(C)C(=O)[C@@H]2COC(=O)N2c2cc(C(F)(F)F)cc(C)n2)ccc1C` [Example 92, (S)-N-(3-Methoxy-4-methylphenyl)-N-methyl-3-(6-methyl-4-(trifluoromethyl)pyridin-2-yl)-2-oxooxazolidine-4-carboxamide], the IC50 amounted to 18 nM. The IC50 values of the last two molecules are within 1.5-fold of each other.
The molecule `Cc1cc(C)c(C#N)c(N2C[C@@H](O)C[C@H]2C(=O)N(C)c2ccccc2)n1` [Example 7, (2S,4S)-1-(3-Cyano-4,6-dimethylpyridin-2-yl)-4-hydroxy-N-methyl-N-phenylpyrrolidine-2-carboxamide] showed an IC50 of 438 nM.
`CCN(C(=O)[C@H]1C[C@@H](NC)CN1c1nc(C)cc(C)c1C#N)c1cccc(C)c1` (stereo in doubt) [Example 43, (2R,4R)-1-(3-Cyano-4,6-dimethylpyridin-2-yl)-N-ethyl-4-(methylamino)-N-(m-tolyl)-pyrrolidine-2-carboxamide]: 221 nM corresponded to half-maximal inhibition (IC50). This IC50 is about 2-fold lower than that of the molecule before.
With `Cc1cc(C(F)(F)F)cc(N2C(=O)N(CCN3CCS(=O)(=O)CC3)C[C@H]2C(=O)N(C)c2ccc(F)c(Cl)c2F)n1` [Example 208, (S)-N-(3-Chloro-2,4-difluorophenyl)-1-(2-(1,1-dioxidothiomorpholino)-ethyl)-N-methyl-3-(6-methyl-4-(trifluoromethyl)pyridin-2-yl)-2-oxoimidazolidine-4-carboxamide] the figure was 9 nM; with `CC(=O)N1CCN(CCN2C[C@@H](C(=O)N(C)c3ccc(F)c(Cl)c3F)N(c3cc(C(F)(F)F)cc(C)n3)C2=O)CC1` [Example 204, (S)-1-(2-(4-Acetylpiperazin-1-yl)ethyl)-N-(3-chloro-2,4-difluoro-phenyl)-N-methyl-3-(6-methyl-4-(trifluoromethyl)pyridin-2-yl)-2-oxoimidazolidine-4-carboxamide], 3 nM.
Under `CCN(C(=O)[C@@H]1[C@H](O)[C@H](O)CN1c1nc(C)cc(C(F)(F)F)c1C#N)c1ccc(F)c(F)c1` [Example 56, (2S,3S,4R)-1-(3-Cyano-6-methyl-4-(trifluoromethyl)pyridin-2-yl)-N-(3,4-difluorophenyl)-N-ethyl-3,4-dihydroxypyrrolidine-2-carboxamide] stands 42 nM.
`CCN(C(=O)[C@@H]1C[C@@H](N)CN1c1nc(C)cc(C)c1C#N)c1cccc(C)c1` [Example 40, (2S,4R)-4-Amino-1-(3-cyano-4,6-dimethylpyridin-2-yl)-N-ethyl-N-(m-tolyl)pyrrolidine-2-carboxamide] gave an IC50 of 1760 nM.
With `CCc1cc(C(F)(F)F)cc(N2C(=O)OC[C@H]2C(=O)N(C)c2ccc(F)c(Cl)c2)n1` [Example 115, (S)—N-(3-Chloro-4-fluorophenyl)-3-(6-ethyl-4-(trifluoromethyl)pyridin-2-yl)-N-methyl-2-oxooxazolidine-4-carboxamide], the IC50 is 54 nM.
`Cc1cc(C(C)C)cc(N2C(=O)OC[C@H]2C(=O)N(C)c2ccc(F)c(Cl)c2)n1` [Example 118, (S)—N-(3-Chloro-4-fluorophenyl)-3-(4-isopropyl-6-methylpyridin-2-yl)-N-methyl-2-oxooxazolidine-4-carboxamide] came in with an IC50 of 25 nM.
Under `Cc1cccc(N(C)C(=O)[C@@H]2[C@H](O)[C@H](O)CN2c2nc(C)cc(C)c2C#N)c1` [Example 55, (2S,3S,4R)-1-(3-Cyano-4,6-dimethyl-pyridin-2-yl)-3,4-dihydroxy-N-methyl-N-(m-tolyl)-pyrrolidine-2-carboxamide] stands 118 nM.
With `Cc1cc(C(F)(F)F)c(C#N)c(N2C[C@@H](O)C[C@H]2C(=O)N(C)c2ccc(F)c(CF)c2)n1` [Example 15, (2S,4S)-1-(3-Cyano-6-methyl-4-(trifluoromethyl)pyridin-2-yl)-N-(4-fluoro-3-(fluoromethyl)-phenyl)-4-hydroxy-N-methyl-pyrrolidine-2-carboxamide] the figure was 57 nM.
In turn, `CNc1cccc(N(C)C(=O)[C@@H]2COC(=O)N2c2cc(C(F)(F)F)cc(C)n2)n1` [Example 176, (S)—N-Methyl-3-(6-methyl-4-(trifluoromethyl)pyridin-2-yl)-N-(6-(methylamino)pyridin-2-yl)-2-oxooxazolidine-4-carboxamide] came in with a half-maximal inhibitory concentration (IC50) of 94 nM.
`Cc1cc(C(F)(F)F)cc(N2C(=O)N(CCO)C[C@H]2C(=O)N(C)c2ccc(F)c(Cl)c2)n1` [Example 193, (S)—N-(3-Chloro-4-fluorophenyl)-1-(2-hydroxyethyl)-N-methyl-3-(6-methyl-4-(trifluoromethyl)pyridin-2-yl)-2-oxoimidazolidine-4-carboxamide] displayed an IC50 of 6 nM.
Under `Cc1cc(C(F)(F)F)cc(N2C(=O)[C@@H](O)[C@@H](O)[C@H]2C(=O)N(C)c2ccc(Cl)cc2F)n1` [Example 165, (2S,3S,4S)—N-(4-Chloro-2-fluorophenyl)-3,4-dihydroxy-N-methyl-1-(6-methyl-4-(trifluoromethyl)pyridin-2-yl)-5-oxopyrrolidine-2-carboxamide] stands 20 nM.
Under `Cc1cccc(N(C)C(=O)[C@@H]2C[C@H](O)CN2c2cc(C(C)C)cc(C)n2)c1` [Example 28, (2S,4S)-4-Hydroxy-1-(4-isopropyl-6-methylpyridin-2-yl)-N-methyl-N-(m-tolyl)pyrrolidine-2-carboxamide] stands 48 nM; under `Cc1cc(C(F)(F)F)cc(N2C(=O)N(CCN3CCOCC3)C[C@H]2C(=O)N(C)c2ccc(F)c(Cl)c2)n1` [Example 194, (S)-N-(3-Chloro-4-fluorophenyl)-N-methyl-3-(6-methyl-4-(trifluoromethyl)pyridin-2-yl)-1-(2-morpholinoethyl)-2-oxoimidazolidine-4-carboxamide], 7 nM.
With `CCN(C(=O)[C@@H]1C[C@H](NC(C)=O)C(=O)N1c1cc(C(F)(F)F)cc(C)n1)c1ccc(F)c(Cl)c1` [Example 62, (2S,4S)-4-Acetamido-N-(3-chloro-4-fluorophenyl)-N-ethyl-1-(6-methyl-4-(trifluoromethyl)pyridin-2-yl)-5-oxopyrrolidine-2-carboxamide] the figure was 208 nM.
